Measurements reported in US8614205B2, “Glutamate receptor modulators and therapeutic agents” (priority 2009, dated 2013).
Several values for one entry are separate records, joined by “and”; a condition that tells them apart may be missing. Equal values may be shown once. Read-outs that look alike come from different tables or passages of the source.

Columns and labels:
mGluR5 = target: T1, mGluR5 (Homo sapiens, UniProt P41594); experiment: aequorin calcium assay, negative allosteric modulation of mGluR5; format: cell-based
T1 construct: expression induced with doxycycline
Protocol: (§1) The ability of test compound to ameliorate the efflux of calcium cations (Ca^++) in the presence of agonist (glutamate or quisqualate) is measured by detection of light emitted by the luminescent protein aequorin triggered by binding of Ca^++. Aequorin is a photoprotein isolated from luminescent jellyfish (like various Aequorea species e.g. Aequorea victoria). Aequorin is composed of two distinct units, the apoprotein apoaequorin, with an approximate molecular weight of 22 kDa, and the prosthetic group, coelenterazine, responsible for emission of light. In the presence of molecular oxygen the two components of aequorin assemble spontaneously, forming the functional protein. Four EF-hand type regions have been identified in the structure of Aequorin and at least 3 of them function as binding sites for Ca+2 ions: Ca+2 binding to these EF hands triggers a conformational change of the protein, that leads it to oxidize its prosthetic group, coelenterazine, into excited coelenteramide and CO2. As the excited coelenteramide relaxes to the ground state, blue light (wavelength=469 nm) is emitted and can be measured by a luminometer. Negative allosteric modulator activity of test compound is expressed as a percentage of the stimulation of reference agonist (glutamate) activity at its EC80 concentration. Assay of Compounds was performed at Euroscreen SA, Gosselies, Belgium.
(§2) Cells stably transfected with mGlu1 or mGlu5 were grown 18 hours prior to the test in culture medium containing 600 ng/ml doxycycline, then were detached by gentle flushing with PBS-EDTA, recovered by centrifugation and resuspended in “assay buffer” (HBSS, 2.1 mM CaCl2, 3 μg/ml GPT (Glutamate-Pyruvate transaminase), 4 mM MEM Sodium Pyruvate, 0.1% BSA, protease free). Cells were incubated at room temperature for at least 4 h with coelenterazine-h. Dose response curves were performed using mGluR1 cells with the orthosteric agonist glutamate and negative allosteric modulator JNJ16259685. Dose response curves were performed using mGluR5 cells with the orthosteric agonist glutamate and negative allosteric modulator MPEP. For agonist testing, 30 μl of cell suspension were mixed with 30 μl of test compound or reference agonist in a 384-well plate. The resulting emission of light was recorded using the Hamamatsu Functional Drug Screening System 6000 (FDSS 6000). For negative allosteric modulator testing, 60 μl of the resulting cell suspension containing the test compound was mixed with 30 μl of the reference agonist at EC80 following an incubation of 3 min after the first injection. The resulting emission of light was recorded using FDSS 6000. […] Plates also contained the reference agonist at a concentration equivalent to the EC80 obtained during the test validation. Negative allosteric modulator activity of test compound was expressed as a percentage of the stimulation of reference agonist activity at its EC80 concentration.

mGluR1 [1] = target: T2, mGluR1 (Homo sapiens, UniProt Q13255); experiment: aequorin calcium assay, negative allosteric modulation of mGluR1; format: cell-based; settings: thiazole derivatives of benzamide, in vitro activity; read-out: binding at mGluR1
T2 construct: expression induced with doxycycline

mGluR1 [2] = target: T2, mGluR1; experiment: as above; format: cell-based; settings: aequorin assay, agonist at EC80; 10000 = no activity observed at 10,000 nM
Protocol: as §1, §2

[3] = system: hyperalgesia in partial sciatic nerve ligation rat; experiment: partial sciatic nerve ligation (PSN) model of neuropathic pain, paw withdrawal method; format: in vivo; design: AUC (0-5): unit not given beside the values; settings: for % MPE (0-100) 1 hr / Paw withdrawal thresholds (g; raw data) 1 hr / Raw MPE (%) 1 hr / % MPE (0-100) 3 hrs / Paw withdrawal thresholds (g; raw data) 3 hrs / Raw MPE (%) 3 hrs / % MPE (0-100) 5 hrs / Paw withdrawal thresholds (g; raw data) 5 hrs / Raw MPE (%) 5 hrs / % MPE (0-100) 24 hrs / Paw withdrawal thresholds (g; raw data) 24 hrs / Raw MPE (%) 24 hrs / AUC (0-5): PSN Sx rat
Protocol: Briefly, under gas anesthesia, the skin and muscles of the thigh were reflected to expose the sciatic nerve. About one-third to one-half of the cross-sectional area of the nerve was tightly ligated using a 7-0 nylon suture. The incision was closed in layers (suture for muscle, surgical adhesive for skin). […] Treated rats were assayed at 1, 3, 5, and 24 hr using the paw withdrawal method (L. Randall and J. Selitto, 1957, Arch. Int. Pharmacodynam., 111:409-19). […] The Partial sciatic nerve ligation assay was performed at Eurofins/Product Safety Laboratories (Dayton, N.J.).
Animals were housed in cages which conform to the size recommendations in the most recent NIH Guide for the Care and Use of Laboratory Animals. […] The animals were fed Purina Rodent Chow #5012. The animals were acclimated to the facility for 7 days prior to the study. A pre-operative baseline paw withdrawal measure was collected for all rats. […] After recovery, a pre-dosing baseline paw withdrawal threshold was collected for all rats. […] Rats were lightly anesthetized and treated with test article or vehicle. Paw withdrawal thresholds were determined at one, three, five, and 24 hours post dosing. […] Briefly, under gas anesthesia, the skin and muscles of the thigh were reflected to expose the sciatic nerve. About one third to one half of the cross-sectional area of the nerve was tightly ligated using a 7-0 nylon suture. The incision was closed in layers (suture for muscle, surgical adhesive for skin). Test article or vehicle was administered by transcutaneous injection (C. Mestre et al., 1994, J. Pharm. Tox. Meth., 32:197-200). Briefly, the rat was lightly anesthetized and placed to flex the lower lumbar vertebrae. After palpating the vertebral processes, a 26 gauge needle was inserted through a vertebral interspace. The presence of a tail flick was considered validation of the needle placement; the solution was then injected. Paw withdrawal thresholds were assessed using a paw pressure device (L. O. Randall & J. J. Selitto, 1957, Arch. Int. Pharmacodyn., 111:409-19). The behavioral endpoint was defined as paw withdrawal. Data was analyzed by two-way analysis of variance (repeated measures) with Bonferroni tests at individual time points. Paw withdrawal threshold raw values were used for the analysis, and each route of administration was analyzed separately. Vehicle-treated groups were used as the statistical comparison groups.

[4] = thiazole derivatives of benzamide, in vitro activity, read-out: binding at mGluR5
[5] = 10 μg intrathecal, group Average (N 6)
[6] = 10 μg intrathecal, individual rat, listed as SND 121
[7] = 49 μg intrathecal, group Average (N 6)
[8] = 49 μg intrathecal, individual rat, listed as SND 121

T1 sequence (P41594 21-1212): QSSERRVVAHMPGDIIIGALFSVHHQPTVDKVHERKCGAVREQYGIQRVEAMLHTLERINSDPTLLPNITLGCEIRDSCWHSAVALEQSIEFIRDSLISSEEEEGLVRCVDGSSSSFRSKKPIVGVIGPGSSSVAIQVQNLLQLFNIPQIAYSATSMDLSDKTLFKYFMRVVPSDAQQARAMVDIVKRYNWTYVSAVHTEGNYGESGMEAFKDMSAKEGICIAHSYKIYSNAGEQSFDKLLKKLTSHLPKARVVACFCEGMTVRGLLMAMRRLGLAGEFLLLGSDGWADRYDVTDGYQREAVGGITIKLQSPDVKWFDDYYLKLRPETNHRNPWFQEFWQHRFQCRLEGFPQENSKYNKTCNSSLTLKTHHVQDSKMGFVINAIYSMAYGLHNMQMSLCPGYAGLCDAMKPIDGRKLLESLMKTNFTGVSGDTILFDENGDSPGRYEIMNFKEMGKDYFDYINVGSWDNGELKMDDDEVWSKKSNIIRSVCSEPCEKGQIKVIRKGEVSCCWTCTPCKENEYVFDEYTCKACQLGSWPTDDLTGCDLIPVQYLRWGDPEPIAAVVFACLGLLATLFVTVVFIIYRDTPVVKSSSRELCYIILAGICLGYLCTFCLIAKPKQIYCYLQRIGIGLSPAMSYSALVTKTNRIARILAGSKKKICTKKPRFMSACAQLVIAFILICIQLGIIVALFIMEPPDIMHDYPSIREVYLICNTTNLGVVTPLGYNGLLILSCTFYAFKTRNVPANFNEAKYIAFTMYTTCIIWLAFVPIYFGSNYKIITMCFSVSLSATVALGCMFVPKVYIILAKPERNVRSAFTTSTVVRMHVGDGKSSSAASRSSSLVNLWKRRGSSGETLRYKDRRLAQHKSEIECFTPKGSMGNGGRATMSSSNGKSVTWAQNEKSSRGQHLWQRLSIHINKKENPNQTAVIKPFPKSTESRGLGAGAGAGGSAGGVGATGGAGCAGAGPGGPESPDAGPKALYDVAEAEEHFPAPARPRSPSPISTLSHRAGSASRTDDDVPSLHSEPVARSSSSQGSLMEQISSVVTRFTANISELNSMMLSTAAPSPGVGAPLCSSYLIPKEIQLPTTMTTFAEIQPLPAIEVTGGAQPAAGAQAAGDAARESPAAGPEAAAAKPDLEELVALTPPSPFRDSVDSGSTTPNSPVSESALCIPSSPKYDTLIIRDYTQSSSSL
T2 sequence (Q13255 19-1194): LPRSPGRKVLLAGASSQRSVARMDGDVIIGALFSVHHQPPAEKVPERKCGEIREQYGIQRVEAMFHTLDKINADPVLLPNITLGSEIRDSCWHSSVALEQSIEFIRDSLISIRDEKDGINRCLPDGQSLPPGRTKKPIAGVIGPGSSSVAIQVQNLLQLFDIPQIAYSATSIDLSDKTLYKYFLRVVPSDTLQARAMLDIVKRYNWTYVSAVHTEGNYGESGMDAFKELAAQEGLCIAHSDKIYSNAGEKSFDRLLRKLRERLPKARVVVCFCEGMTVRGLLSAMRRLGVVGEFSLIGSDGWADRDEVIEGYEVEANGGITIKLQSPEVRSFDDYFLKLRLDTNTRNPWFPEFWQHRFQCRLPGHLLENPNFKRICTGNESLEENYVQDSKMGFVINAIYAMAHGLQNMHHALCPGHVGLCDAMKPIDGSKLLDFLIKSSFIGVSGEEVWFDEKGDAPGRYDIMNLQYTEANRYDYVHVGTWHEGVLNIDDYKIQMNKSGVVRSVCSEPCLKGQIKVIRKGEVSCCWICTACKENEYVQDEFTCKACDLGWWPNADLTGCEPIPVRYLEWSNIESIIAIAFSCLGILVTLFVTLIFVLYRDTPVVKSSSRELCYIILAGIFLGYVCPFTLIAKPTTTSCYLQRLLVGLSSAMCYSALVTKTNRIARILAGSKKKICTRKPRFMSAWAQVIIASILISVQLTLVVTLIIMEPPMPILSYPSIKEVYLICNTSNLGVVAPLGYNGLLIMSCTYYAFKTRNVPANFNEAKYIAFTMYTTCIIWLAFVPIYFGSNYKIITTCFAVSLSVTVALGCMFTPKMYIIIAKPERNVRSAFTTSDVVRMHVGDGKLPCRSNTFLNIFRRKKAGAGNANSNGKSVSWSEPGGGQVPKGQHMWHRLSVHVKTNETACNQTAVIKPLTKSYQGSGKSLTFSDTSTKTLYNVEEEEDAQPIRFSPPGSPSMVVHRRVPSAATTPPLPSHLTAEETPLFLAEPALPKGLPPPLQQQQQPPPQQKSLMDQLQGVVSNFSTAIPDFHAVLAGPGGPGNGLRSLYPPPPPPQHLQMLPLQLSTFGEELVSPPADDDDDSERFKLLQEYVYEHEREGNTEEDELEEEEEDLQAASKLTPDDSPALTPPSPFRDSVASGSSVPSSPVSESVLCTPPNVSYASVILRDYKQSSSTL

CC(=O)Oc1ccc(Cl)cc1C(=O)Nc1nc([N+](=O)[O-])cs1 gave an EC50 (mGluR5; [4]) of 2760 nM and an EC50 (mGluR1 [1]) of 6.32 µM.
With O=C(Nc1nc([N+](=O)[O-])cs1)c1cc(Cl)ccc1O the EC50 (mGluR5; [4]) was 1250 nM and the EC50 (mGluR1 [1]) was 1.76 µM.
In the case of O=C(Nc1ccc([N+](=O)[O-])cc1Cl)c1cc(Cl)ccc1O [Compound 1, 5-Chloro-N-(2-chloro-4-nitrophenyl)-2-hydroxybenzamide], the EC50 (mGluR1 [2]) is reported as 38 nM, the “% MPE (0-100) 1 hr” value [3, 5] is reported as 29.7% and the “Paw withdrawal thresholds (g; raw data) 1 hr” value [3, 5] is reported as 125.8 g. For the same molecule, the “Raw MPE (%) 1 hr” value [3, 5] was 31.3%, the “% MPE (0-100) 1 hr” value [3, 6] was 0.0% (3×) and 6.7% and 100.0% and 71.5% and the “Paw withdrawal thresholds (g; raw data) 1 hr” value [3, 6] was 90 g (2×) and 60 g and 105 g and 250 g and 160 g. For the same molecule, the “Raw MPE (%) 1 hr” value [3, 6] was −10.9% (2×) and 6.7% and 177.6% and 71.5%, the “% MPE (0-100) 3 hrs” value [3, 5] was 39.9% and the “Paw withdrawal thresholds (g; raw data) 3 hrs” value [3, 5] was 130.0 g. For the same molecule, the “Raw MPE (%) 3 hrs” value [3, 5] was 41.8%, the “% MPE (0-100) 3 hrs” value [3, 6] was 41.8% and 27.5% and 0.0% (2×) and 100.0% and 70.3% and the “Paw withdrawal thresholds (g; raw data) 3 hrs” value [3, 6] was 130 g and 120 g and 100 g (2×) and 180 g and 150 g. The “Raw MPE (%) 3 hrs” value [3, 6] was 41.8% and 27.5% and −1.0% (2×) and 113.1% and 70.3%, the “% MPE (0-100) 5 hrs” value [3, 5] was 34.7% and the “Paw withdrawal thresholds (g; raw data) 5 hrs” value [3, 5] was 122.5 g. The “Raw MPE (%) 5 hrs” value [3, 5] was 33.6%, the “% MPE (0-100) 5 hrs” value [3, 6] was 30.3% (2×) and 0.0% and 43.6% and 100.0% and 3.8% and the “Paw withdrawal thresholds (g; raw data) 5 hrs” value [3, 6] was 120 g (2×) and 70 g and 130 g and 195 g and 100 g. The “Raw MPE (%) 5 hrs” value [3, 6] was 30.3% (2×) and −36.0% and 43.6% and 129.9% and 3.8%, the “% MPE (0-100) 24 hrs” value [3, 5] was 28.6% and the “Paw withdrawal thresholds (g; raw data) 24 hrs” value [3, 5] was 117.5 g. For the same molecule, the “Raw MPE (%) 24 hrs” value [3, 5] was 33.9%, the “% MPE (0-100) 24 hrs” value [3, 6] was 44.5% and 16.2% and 2.0% and 9.1% and 100.0% and 0.0% and the “Paw withdrawal thresholds (g; raw data) 24 hrs” value [3, 6] was 125 g and 105 g and 95 g and 100 g and 195 g and 85 g. For the same molecule, the “Raw MPE (%) 24 hrs” value [3, 6] was 44.5% and 16.2% and 2.0% and 9.1% and 143.7% and −12.1%, the “AUC (0-5)” value [3, 5] was 159.1 and the “AUC (0-5)” value [3, 6] was 113.9 and 85.3 and 0.0 and 53.7 and 450.0 and 251.7. For the same molecule, the “% MPE (0-100) 1 hr” value [3, 7] was 80.7%, the “Paw withdrawal thresholds (g; raw data) 1 hr” value [3, 7] was 199.2 g and the “Raw MPE (%) 1 hr” value [3, 7] was 117.7%. The “% MPE (0-100) 1 hr” value [3, 8] was 100.0% (4×) and 48.0% and 36.2%, the “Paw withdrawal thresholds (g; raw data) 1 hr” value [3, 8] was 250 g (2×) and 190 g and 140 g and 130 g and 235 g and the “Raw MPE (%) 1 hr” value [3, 8] was 177.6% (2×) and 106.9% and 48.0% and 36.2% and 159.9%. For the same molecule, the “% MPE (0-100) 3 hrs” value [3, 7] was 54.2%, the “Paw withdrawal thresholds (g; raw data) 3 hrs” value [3, 7] was 163.3 g and the “Raw MPE (%) 3 hrs” value [3, 7] was 89.3%. For the same molecule, the “% MPE (0-100) 3 hrs” value [3, 8] was 100.0% (2×) and 70.3% and 0.0% and 41.8% and 13.2%, the “Paw withdrawal thresholds (g; raw data) 3 hrs” value [3, 8] was 250 g (2×) and 150 g and 90 g and 130 g and 110 g and the “Raw MPE (%) 3 hrs” value [3, 8] was 212.9% (2×) and 70.3% and −15.3% and 41.8% and 13.2%. For the same molecule, the “% MPE (0-100) 5 hrs” value [3, 7] was 31.8%, the “Paw withdrawal thresholds (g; raw data) 5 hrs” value [3, 7] was 119.2 g and the “Raw MPE (%) 5 hrs” value [3, 7] was 29.2%. For the same molecule, the “% MPE (0-100) 5 hrs” value [3, 8] was 100.0% and 43.6% (2×) and 3.8% and 0.0% (2×), the “Paw withdrawal thresholds (g; raw data) 5 hrs” value [3, 8] was 180 g and 130 g (2×) and 100 g and 80 g and 95 g and the “Raw MPE (%) 5 hrs” value [3, 8] was 110.0% and 43.6% (2×) and 3.8% and −22.7% and −2.8%. The “% MPE (0-100) 24 hrs” value [3, 7] was 1.5%, the “Paw withdrawal thresholds (g; raw data) 24 hrs” value [3, 7] was 84.2 g and the “Raw MPE (%) 24 hrs” value [3, 7] was −13.3%. For the same molecule, the “% MPE (0-100) 24 hrs” value [3, 8] was 0.0% (5×) and 9.1%, the “Paw withdrawal thresholds (g; raw data) 24 hrs” value [3, 8] was 90 g (3×) and 55 g and 100 g and 80 g and the “Raw MPE (%) 24 hrs” value [3, 8] was −5.1% (3×) and −54.6% and 9.1% and −19.2%. For the same molecule, the “AUC (0-5)” value [3, 7] was 261.3, the “AUC (0-5)” value [3, 8] was 450.0 and 334.2 and 153.8 and 155.5 and 80.8 and 393.6 and the “effectiveness in model of hyperalgesia vs 100 μg gabapentin” value ([3]; 49 μg intrathecal, rat) was “considerably more effective”. For the same molecule, the “reversing hyperalgesia, compared to gabapentin” value ([3]; 10 or 49 μg intrathecal vs 100 μg gabapentin, rat) was “essentially as effective or more effective as gabapentin” and the EC50 (mGluR5; aequorin assay, agonist at EC80, 10000 = no activity observed at 10,000 nM, read-out: mGluR5 EC50) was 62 nM.
